What all share (format): cell-based
One test has as its system FN1. Description: RNA-seq of FN1 expression in compound-treated primary human hepatocytes. The note with it: perturbed vs unperturbed, significance FPKM ≥1, log 2(fold change) ≥0.5, q-value ≤0.05. A digest of the protocol: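 Cryopreserved primary human hepatocytes from three donors, plated at 375,000 cells/well, switched to complete or modified maintenance medium, then dosed with compound (stocks at 1000× final) for about 18 h. Poly(A) mRNA was sequenced directionally, mapped to GRCh38 with STAR, and gene-level abundance (counts, FPKM) estimated with RSEM against GENCODE 24.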

Another test deals with HMBS. Description: RNA-seq of HMBS expression in compound-treated primary human hepatocytes. The protocol:
Human hepatocytes were obtained from two donors from Massachusetts General Hospital, namely MGH54 and MGH63, and one donor from Lonza, namely HUM4111B. Cryopreserved hepatocytes were cultured in plating media for 16 hours, transferred to maintenance media for 4 hours. Cultured on serum-free media for 2 hours, then a compound was added. The hepatocytes were maintained on the serum-free media for 16 hours prior to gene expression analysis. Primary human hepatocytes were stored in the vapor phase of a liquid nitrogen freezer (about −130° C.).
Human hepatocytes cultured as described above were plated in 24-well format, adding 375,000 cells per well in a volume of 500 ul plating medium. Four hours before treatment, cells were washed with PBS and the medium was changed to either: fresh maintenance medium (complete) or modified maintenance medium.
Compound stocks were prepared at 1000× final concentration and added in a 2-step dilution to the medium to reduce risk of a compound precipitating out of solution when added to the cells, and to ensure reasonable pipetting volumes. […]
For mRNA isolation and library prep, the NEBNext Poly(A) mRNA Magnetic Isolation Module and Directional Prep kit was used. RNA isolated from cells above was quantified, and prepared in […] of each sample in 50 μl of nuclease-free water. […]

The test system of the next test is UGT1A1. Description: RNA-seq of UGT1A1 expression in compound-treated primary human hepatocytes. A digest of the protocol: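 Cryopreserved primary human hepatocytes from three donors were plated in 24-well format, then treated with compound diluted from 1000× stocks in serum-free maintenance medium for about 16–18 h. Poly(A) RNA-seq log2 fold change was computed against vehicle/pan-experiment controls. Significance required FPKM ≥1, log2FC ≥0.5 and q ≤0.05.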

Each structure is given as a SMILES string.

One compound from patent publication US20210161997A1, “TREATING DISEASES VIA TARGETED MODULATION OF GENE SIGNALING NETWORKS” (Camp4 Therapeutics Corporation, priority 2018, published 2021) can be followed below.

Turning to `CN1CCN(c2nc(C3=C(c4c[nH]c5ccccc45)C(=O)NC3=O)c3ccccc3n2)CC1` [Sotrastaurin], in the test with FN1, the “FN1 Fold Change (Log2)” value is reported as −0.81 Log2. Moreover, the “HMBS Fold Change (Log2)” value in the test with HMBS turned out to be 0.78 Log2. In the test with UGT1A1, the “UGT1A1 Fold Change (Log2)” value turned out to be 0.88 Log2.
